Key:
[1] = Inhibition of HCV NS3 protease; parameters: species or system Hepacivirus hominis
Hepatitis C virus = test: Antiviral activity against HCV in human Huh7 cells after 72 hrs by cell based luciferase reporter assay; assay type: functional, organism-based, Hepacivirus hominis; conditions: Huh-7, 72 h

| Structure (SMILES) | IC50 [1] [nM] | EC50 (Hepatitis C virus) [nM] |
| --- | --- | --- |
| C=C[C@@H]1C[C@]1(NC(=O)[C@@H]1C[C@@H](Oc2cc(-c3ccccc3)nc3cc(OC)ccc23)CN1C(=O)[C@@H](NC(=O)OC1CCCC1)C(C)(C)C)C(=O)O | 14 | 550 |
| C=C[C@@H]1C[C@]1(NC(=O)[C@@H]1C[C@@H](n2cc(-c3ccc(Cl)cc3)nn2)CN1C(=O)[C@@H](NC(=O)OC1CCCC1)C(C)(C)C)C(=O)O | 790 | – |
| C=C[C@@H]1C[C@]1(NC(=O)[C@@H]1C[C@@H](n2cc(-c3ccc(Cl)cc3)nn2)CN1C(=O)[C@@H](NC(=O)OC1CCCC1)C(C)(C)C)C(=O)NS(=O)(=O)C1CC1 | < 3 | 680 |
| C=C[C@@H]1C[C@]1(NC(=O)[C@@H]1C[C@@H](n2cc(-c3cc(Br)cc(Br)c3)nn2)CN1C(=O)[C@@H](NC(=O)OC1CCCC1)C(C)(C)C)C(=O)NS(=O)(=O)C1CC1 | < 3 | 150 |
| C=C[C@@H]1C[C@]1(NC(=O)[C@@H]1C[C@@H](n2cc(-c3ccc4c(c3)CCO4)nn2)CN1C(=O)[C@@H](NC(=O)OC1CCCC1)C(C)(C)C)C(=O)NS(=O)(=O)C1CC1 | < 3 | 230 |
| C=C[C@@H]1C[C@]1(NC(=O)[C@@H]1C[C@@H](n2ccnn2)CN1C(=O)[C@@H](NC(=O)OC1CCCC1)C(C)(C)C)C(=O)O | 59000 | – |
| C=C[C@@H]1C[C@]1(NC(=O)[C@@H]1C[C@@H](n2cc(-c3cccc(Cl)c3)nn2)CN1C(=O)[C@@H](NC(=O)OC1CCCC1)C(C)(C)C)C(=O)NS(=O)(=O)C1CC1 | < 3 | 170 |
| C=C[C@@H]1C[C@]1(NC(=O)[C@@H]1C[C@@H](n2cc(-c3ccc(S(C)(=O)=O)cc3)nn2)CN1C(=O)[C@@H](NC(=O)OC1CCCC1)C(C)(C)C)C(=O)NS(=O)(=O)C1CC1 | < 3 | > 7300 |
| C=C[C@@H]1C[C@]1(NC(=O)[C@@H]1C[C@@H](n2cc(-c3ccccc3)nn2)CN1C(=O)[C@@H](NC(=O)OC1CCCC1)C(C)(C)C)C(=O)O | 700 | – |
| C=C[C@@H]1C[C@]1(NC(=O)[C@@H]1C[C@@H](n2cc(C3CCCCC3)nn2)CN1C(=O)[C@@H](NC(=O)OC1CCCC1)C(C)(C)C)C(=O)O | 4300 | – |
| C=C[C@@H]1C[C@]1(NC(=O)[C@@H]1C[C@@H](n2cc(-c3ccsc3)nn2)CN1C(=O)[C@@H](NC(=O)OC1CCCC1)C(C)(C)C)C(=O)NS(=O)(=O)C1CC1 | < 3 | 1220 |
| C=C[C@@H]1C[C@]1(NC(=O)[C@@H]1C[C@@H](n2nncc2-c2ccccc2)CN1C(=O)[C@@H](NC(=O)OC1CCCC1)C(C)(C)C)C(=O)O | 14000 | – |
| C=C[C@@H]1C[C@]1(NC(=O)[C@@H]1C[C@@H](n2cc(-c3ccc4c(c3)OCO4)nn2)CN1C(=O)[C@@H](NC(=O)OC1CCCC1)C(C)(C)C)C(=O)NS(=O)(=O)C1CC1 | < 3 | 190 |
| C=C[C@@H]1C[C@]1(NC(=O)[C@@H]1C[C@@H](n2cc(-c3ccc4c(c3)CCO4)nn2)CN1C(=O)[C@@H](NC(=O)OC1CCCC1)C(C)(C)C)C(=O)O | 130 | – |
| C=C[C@@H]1C[C@]1(NC(=O)[C@@H]1C[C@@H](n2cc(-c3ccc(-c4ccccc4)cc3)nn2)CN1C(=O)[C@@H](NC(=O)OC1CCCC1)C(C)(C)C)C(=O)O | 860 | – |
| C=C[C@@H]1C[C@]1(NC(=O)[C@@H]1C[C@@H](n2cc(-c3ccccc3)nn2)CN1C(=O)[C@@H](NC(=O)OC1CCCC1)C(C)(C)C)C(=O)NS(=O)(=O)C1CC1 | 2.7 | 430 |
| C=C[C@@H]1C[C@]1(NC(=O)[C@@H]1C[C@@H](n2cc(-c3cccc4ccccc34)nn2)CN1C(=O)[C@@H](NC(=O)OC1CCCC1)C(C)(C)C)C(=O)O | 890 | – |

Second part, the compound after the results:

| IC50 [1] [nM] | EC50 (Hepatitis C virus) [nM] | Structure (SMILES) |
| --- | --- | --- |
| 3700 | – | C=C[C@@H]1C[C@]1(NC(=O)[C@@H]1C[C@@H](n2cc(-c3ccccn3)nn2)CN1C(=O)[C@@H](NC(=O)OC1CCCC1)C(C)(C)C)C(=O)O |
| < 3 | 220 | C=C[C@@H]1C[C@]1(NC(=O)[C@@H]1C[C@@H](n2cc(-c3ccccc3Cl)nn2)CN1C(=O)[C@@H](NC(=O)OC1CCCC1)C(C)(C)C)C(=O)NS(=O)(=O)C1CC1 |
| – | 77 | C=C[C@@H]1C[C@]1(NC(=O)[C@@H]1C[C@@H](n2cc(-c3cc(Br)cc(Br)c3)nn2)CN1C(=O)[C@@H](NC(=O)OC1CCCC1)C(C)(C)C)C(=O)NS(=O)(=O)C1(C)CC1 |
| 360 | – | C=C[C@@H]1C[C@]1(NC(=O)[C@@H]1C[C@@H](n2cc(-c3ccc(OC)cc3)nn2)CN1C(=O)[C@@H](NC(=O)OC1CCCC1)C(C)(C)C)C(=O)O |
| < 3 | 210 | C=C[C@@H]1C[C@]1(NC(=O)[C@@H]1C[C@@H](n2cc(-c3cccc(Br)c3)nn2)CN1C(=O)[C@@H](NC(=O)OC1CCCC1)C(C)(C)C)C(=O)NS(=O)(=O)C1CC1 |
| < 3 | 140 | C=C[C@@H]1C[C@]1(NC(=O)[C@@H]1C[C@@H](n2cc(-c3cc(Cl)cc(Cl)c3)nn2)CN1C(=O)[C@@H](NC(=O)OC1CCCC1)C(C)(C)C)C(=O)NS(=O)(=O)C1CC1 |
| < 3 | 270 | C=C[C@@H]1C[C@]1(NC(=O)[C@@H]1C[C@@H](n2cc(-c3ccc(N(C)C)cc3)nn2)CN1C(=O)[C@@H](NC(=O)OC1CCCC1)C(C)(C)C)C(=O)NS(=O)(=O)C1CC1 |
| – | 105 | C=C[C@@H]1C[C@]1(NC(=O)[C@@H]1C[C@@H](n2cc(-c3cc(Br)cc(Br)c3)nn2)CN1C(=O)[C@@H](NC(=O)NC1CCCC1)C(C)(C)C)C(=O)NS(=O)(=O)C1CC1 |
